According to the supplement of paper PMC10307832:

Legend:
Assay in all cases: relative viability (nuclei count vs DMSO), 5 days (fraction); higher = more cells survive
UMC-11 = tested on: UMC-11
Outline: (§1)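 Relative viability is defined as nuclei in treated wells over nuclei in vehicle wells. Duplicate plates were run and medians reported. Lung cancer cell lines in 1536-well plates were dosed by pin tool one day after seeding, with one drug or with a fixed anchor-drug dose plus five library-drug doses (not always all listed) in √10 steps, and nuclei were counted after 5 days.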

NCI-H1915 = tested on: NCI-H1915
Outline: as §1

NCI-H3122 = tested on: NCI-H3122
Outline: as §1

NCI-H460 = tested on: NCI-H460
Outline: as §1

NCI-H650 = tested on: NCI-H650
Outline: as §1

PC-14 = tested on: PC-14
Outline: as §1

H3255 = tested on: H3255
Outline: as §1

PC-3 [JPC-3] = tested on: PC-3 [JPC-3]
Outline: as §1

NCI-H441 = tested on: NCI-H441
Outline: as §1

HARA = tested on: HARA
Outline: as §1

NCI-H1755 = tested on: NCI-H1755
Outline: as §1

NCI-H1793 = tested on: NCI-H1793
Outline: as §1

O=C(O)CCCCC(CCSCc1ccccc1)SCc1ccccc1 (configuration not stated) [CPI-613] + Cc1nc(NC(=O)N2CCC[C@H]2C(N)=O)sc1-c1ccnc(C(C)(C)C(F)(F)F)c1 [Alpelisib] (partner 2 µM)
relative viability (UMC-11; first compound 50 µM): 1.02
relative viability (UMC-11; first compound 158.11 µM): 0.398
relative viability (UMC-11; first compound 500 µM): 0.0725
relative viability (NCI-H1915; first compound 5 µM): 1.12
relative viability (NCI-H1915; first compound 15.81 µM): 1.04
relative viability (NCI-H1915; first compound 50 µM): 1.01
relative viability (NCI-H1915; first compound 158.11 µM): 0.925
relative viability (NCI-H1915; first compound 500 µM): 0.926
relative viability (NCI-H3122; first compound 5 µM): 0.638
relative viability (NCI-H3122; first compound 15.81 µM): 0.751
relative viability (NCI-H3122; first compound 50 µM): 0.715
relative viability (NCI-H3122; first compound 158.11 µM): 0.528
relative viability (NCI-H3122; first compound 500 µM): 0.0415
relative viability (NCI-H460; first compound 5 µM): 0.426
relative viability (NCI-H460; first compound 15.81 µM): 0.496
relative viability (NCI-H460; first compound 50 µM): 0.433
relative viability (NCI-H460; first compound 158.11 µM): 0.0466
relative viability (NCI-H460; first compound 500 µM): 0.006
relative viability (NCI-H650; first compound 5 µM): 1.18
relative viability (NCI-H650; first compound 15.81 µM): 1.06
relative viability (NCI-H650; first compound 50 µM): 1.06
relative viability (NCI-H650; first compound 158.11 µM): 0.931
relative viability (NCI-H650; first compound 500 µM): 0.892
relative viability (PC-14; first compound 5 µM): 0.97
relative viability (PC-14; first compound 15.81 µM): 0.884
relative viability (PC-14; first compound 50 µM): 0.849
relative viability (PC-14; first compound 158.11 µM): 1.01
relative viability (PC-14; first compound 500 µM): 0.863
relative viability (H3255; first compound 5 µM): 0.695
relative viability (H3255; first compound 15.81 µM): 0.576
relative viability (H3255; first compound 50 µM): 0.695
relative viability (H3255; first compound 158.11 µM): 0.639
relative viability (H3255; first compound 500 µM): 0.672
relative viability (PC-3 [JPC-3]; first compound 5 µM): 1.05
relative viability (PC-3 [JPC-3]; first compound 15.81 µM): 0.943
relative viability (PC-3 [JPC-3]; first compound 50 µM): 0.934
relative viability (PC-3 [JPC-3]; first compound 158.11 µM): 0.921
relative viability (PC-3 [JPC-3]; first compound 500 µM): 0.903
relative viability (NCI-H441; first compound 5 µM): 0.692
relative viability (NCI-H441; first compound 15.81 µM): 1.01
relative viability (NCI-H441; first compound 50 µM): 0.573
relative viability (NCI-H441; first compound 158.11 µM): 0.216
relative viability (NCI-H441; first compound 500 µM): 0.007
relative viability (HARA; first compound 5 µM): 0.856
relative viability (HARA; first compound 15.81 µM): 0.681
relative viability (HARA; first compound 50 µM): 0.942
relative viability (HARA; first compound 158.11 µM): 0.401
relative viability (HARA; first compound 500 µM): 0.0463
relative viability (NCI-H1755; first compound 5 µM): 0.91
relative viability (NCI-H1755; first compound 15.81 µM): 0.89
relative viability (NCI-H1755; first compound 50 µM): 0.837
relative viability (NCI-H1755; first compound 158.11 µM): 0.769
relative viability (NCI-H1755; first compound 500 µM): 0.251
relative viability (NCI-H1793; first compound 5 µM): 0.671
relative viability (NCI-H1793; first compound 50 µM): 0.66
relative viability (NCI-H1793; first compound 158.11 µM): 0.273
relative viability (NCI-H1793; first compound 500 µM): 0.109
